Measured values taken from patent US20140193802A1, “IDENTIFICATION OF AN ALTERED THERAPEUTIC SUSCEPTIBILITY TO ANTI-HCMV COMPOUNDS AND OF A RESISTANCE AGAINST ANTI-HCMV COMPOUNDS” (priority 2012, published 2014).

Tests used:
Test in all cases: CPE-RA, letermovir-selected mutant
Format in all cases: cell-based, human cytomegalovirus (HCMV)
[1] = tested on: HCMV AD169 mutant rAIC246-1 (UL56 L241P); details: for EC50: Human betaherpesvirus 5, AD169
Protocol: (§1) HCMV Cytopathic Effect Reduction Assay (CPE-RA)
(§2) CPE-RAs were performed basically as described elsewhere (HCMV replication assay). In brief, the addition of 2 μl test compound of 50, 5, 0.5, 0.05, 0.005, and 0.0005 mM DMSO stock solutions to 100 μl cell culture medium in duplicate was followed by serial 2-fold dilutions in 96-well microtiter plates. Each well was supplemented with 150 μl of either a suspension of 1×10^4 NHDF cells mixed with cell-free HCMV (multiplicity of infection (MOI), 0.03) or a suspension of 1×10^4 to 3×10^4 HCMV-infected and uninfected NHDF cells (MOI, 0.001 to 0.002). Non-infected and non-treated cells served as controls on each plate. Final compound concentrations ranged between 250 and 0.00005 μM. Plates were incubated for 6 to 7 days at 37° C. or until the virus control reached 100% CPE. A mixture containing 20% Giemsa stain (Merck) and 5% formalin solution (Merck) was added to the wells for fixation and staining. After extensive washing, plates were dried at 56° C. followed by visual evaluation using an overhead microscope (plaque magnifier; Tecnorama Zürich). Each assay was performed at least in triplicate, and standard deviations were calculated. The assay plate data were used to calculate the EC50 (CPE-RA), i.e., the concentration of drug that inhibits the CPE by 50% compared with an untreated virus-infected control.
(§3) Drug-resistant HCMV AD169 mutants were selected by the single-step selection method or by serial passage of the virus in the presence of increasing concentration of Letermovir. Briefly, 5×10^3 AD169-infected NHDF cells/well (MOI, 0.03 PFU/cell) were seeded into the wells of 30 96-well microtiter plates. The infection was allowed to proceed under the exposure of 50 nM Letermovir (˜10×EC50) until a CPE developed in one or more of the compound-treated wells (indicative of resistant virus breakthrough). Non-infected and non-treated cells served as controls on each plate. Mutant virus amplification was accomplished after cultures achieved maximum CPE by the passage of cell-free supernatant virus in the presence of 50 nM Letermovir. The resultant Letermovir-resistant progeny virus mutants were plaque purified three times by limiting dilutions in the presence of Letermovir. The stability of resistance was tested by serially passaging plaque-purified viruses without selective pressure (8 to 10 times). The resistant phenotype of the mutants was confirmed by CPE reduction assays.

[2] = tested on: HCMV AD169 mutant rAIC246-10 (UL56 V236M); details: for EC50: Human betaherpesvirus 5, AD169, rAIC246-10 (UL56 V236M), CPE reduction assay, mean ± SD
Protocol: as §1, §2, §3

[3] = tested on: HCMV AD169 mutant rAIC246-2 (UL56 R369S); details: for EC50: Human betaherpesvirus 5, AD169, rAIC246-2 (UL56 R369S), CPE reduction assay, mean ± SD
Protocol: as §1, §2, §3

[4] = tested on: HCMV AD169 mutant rAIC246-3 (UL56 C325Y); details: for EC50: Human betaherpesvirus 5, AD169, rAIC246-3 (UL56 C325Y), CPE reduction assay, mean ± SD
Protocol: as §1, §2, §3

[5] = tested on: HCMV AD169 mutant rAIC246-4 (UL56 V231L); details: for EC50: Human betaherpesvirus 5, AD169, rAIC246-4 (UL56 V231L), CPE reduction assay, mean ± SD
Protocol: as §1, §2, §3

[6] = tested on: HCMV AD169 mutant rAIC246-5 (UL56 R369M); details: for EC50: Human betaherpesvirus 5, AD169, rAIC246-5 (UL56 R369M), CPE reduction assay, mean ± SD
Protocol: as §1, §2, §3

[7] = tested on: HCMV AD169 mutant rAIC246-6 (UL56 R369M); details: for EC50: Human betaherpesvirus 5, AD169, rAIC246-6 (UL56 R369M), CPE reduction assay, mean ± SD
Protocol: as §1, §2, §3

[8] = tested on: HCMV AD169 mutant rAIC246-7 (UL56 L241P); details: for EC50: Human betaherpesvirus 5, AD169, rAIC246-7 (UL56 L241P), CPE reduction assay, mean ± SD
Protocol: as §1, §2, §3

[9] = tested on: HCMV AD169 mutant rAIC246-8 (UL56 C325Y); details: for EC50: Human betaherpesvirus 5, AD169, rAIC246-8 (UL56 C325Y), CPE reduction assay, mean ± SD
Protocol: as §1, §2, §3

[10] = tested on: HCMV AD169 mutant rAIC246-9 (UL56 R369G); details: for EC50: Human betaherpesvirus 5, AD169, rAIC246-9 (UL56 R369G), CPE reduction assay, mean ± SD
Protocol: as §1, §2, §3

## Nc1nc(O)c2ncn(COC(CO)CO)c2n1 [Ganciclovir]
[1]
  EC50: 1200 ± 200 nM
[2]
  EC50: 1700 ± 300 nM
[3]
  EC50: 4000 ± 900 nM
[4]
  EC50: 2.4 ± 2.5 µM
[5]
  EC50: 4200 ± 1300 nM
[6]
  EC50: 5000 ± 400 nM
[7]
  EC50: 2900 ± 900 nM
[8]
  EC50: 2200 ± 600 nM
[9]
  EC50: 2.2 ± 1.2 µM
[10]
  EC50: 1700 ± 200 nM

## COc1cccc(N2CCN(C3=Nc4c(F)cccc4[C@H](CC(=O)O)N3c3cc(C(F)(F)F)ccc3OC)CC2)c1 [Letermovir, (S)-{8-fluoro-2-[4-(3-methoxyphenyl)-1-piperazinyl]-3-[2-methoxy-5-(trifluoromethyl)phenyl]-3,4-dihydro-4-quinazolinyl}acetic acid]
[1]
  EC50: 1240 ± 360 nM
[1]; rAIC246-1 vs AD169
  Resistance index (RI) = letermovir-EC50 mutant virus/letermovir-EC50 wild-type virus: 221
[2]
  EC50: 70 ± 20 nM
[2]; rAIC246-10 vs AD169
  Resistance index (RI) = letermovir-EC50 mutant virus/letermovir-EC50 wild-type virus: 13
[3]
  EC50: 370 ± 70 nM
[3]; rAIC246-2 vs AD169
  Resistance index (RI) = letermovir-EC50 mutant virus/letermovir-EC50 wild-type virus: 66
[4]
  EC50: 27 ± 3.27 µM
[4]; rAIC246-3 vs AD169
  Resistance index (RI) = letermovir-EC50 mutant virus/letermovir-EC50 wild-type virus: 4801
[5]
  EC50: 130 ± 10 nM
[5]; rAIC246-4 vs AD169
  Resistance index (RI) = letermovir-EC50 mutant virus/letermovir-EC50 wild-type virus: 23
[6]
  EC50: 110 ± 10 nM
[6]; rAIC246-5 vs AD169
  Resistance index (RI) = letermovir-EC50 mutant virus/letermovir-EC50 wild-type virus: 19
[7]
  EC50: 80 ± 20 nM
[7]; rAIC246-6 vs AD169
  Resistance index (RI) = letermovir-EC50 mutant virus/letermovir-EC50 wild-type virus: 14
[8]
  EC50: 920 ± 120 nM
[8]; rAIC246-7 vs AD169
  Resistance index (RI) = letermovir-EC50 mutant virus/letermovir-EC50 wild-type virus: 164
[9]
  EC50: 25 ± 5.53 µM
[9]; rAIC246-8 vs AD169
  Resistance index (RI) = letermovir-EC50 mutant virus/letermovir-EC50 wild-type virus: 4428
[10]
  EC50: 60 ± 40 nM
[10]; rAIC246-9 vs AD169
  Resistance index (RI) = letermovir-EC50 mutant virus/letermovir-EC50 wild-type virus: 11
